From patent US10077261B2, “Imidazolin-5-one derivative useful as FASN inhibitors for the treatment of cancer” (Janssen Pharmaceutica NV, priority 2012, dated 2018)

What was measured:
[1] = biological target: Fatty Acid Synthase Keto-reductase Domain (FASN KR) (Homo sapiens, UniProt P49327); experiment: Fatty Acid Synthase keto-reductase domain (FASN KR) inhibition, NADPH oxidation at 340 nm
Description: After 20 minutes incubation at room temperature the plate was measured again (T2).
The decrease in absorbance was calculated as (Absorbance before incubation T1)−(Absorbance following incubation T2).
A plot of Controlmin versus test compound concentration was fitted to a 4-parameter logistic curve using a non-linear least squares regression method.

[2] = system: PC-3M-Luc-C6 prostate cells; experiment: In vitro PC-3M-Luc-C6 prostate cell proliferation assay in lipid reduced medium; format: cell-based; details: 96 h, read-out: pIC50 PC-3M-Luc-C6 prostate cell (converted)
A2780 ovarian cells [3] = experiment: A2780 ovarian cell proliferation assay in lipid reduced medium, with palmitate (MTT); format: cell-based; details: Homo sapiens, A2780, 96 h; read-out: pIC50 A2780 Ovarian Cell, With Palmitate (converted)
Summary of the method: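 Seeded cells were switched next day to lipid-reduced serum, exposed to compound and 25 μM palmitate complexed with fatty-acid-free BSA, and incubated 96 h. Proliferation was then determined by MTT absorbance at 544 nm, with a best-fit curve of signal against concentration.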

A2780 ovarian cells [4] = experiment: A2780 ovarian cell proliferation assay in lipid reduced medium, without palmitate (MTT); format: cell-based; details: Homo sapiens, A2780, 96 h; read-out: pIC50 A2780 Ovarian Cell, Without Palmitate (converted)
[5] = biological target: T1, hFASN enzyme (full length) (Homo sapiens, UniProt P49327); experiment: Fatty Acid Synthase (FASN) inhibition scintillation proximity assay; format: biochemical; details: for inhibition at 10 µM: read-out: Human FASN % inhibition @ 10 μM, 10 μM test compound; for IC50: read-out: Human FASN pIC50 (converted)
T1 construct: 10 μL hFASN enzyme (full length, 300 ng, purified in house); made in house
T1 sequence (P49327 whole entry): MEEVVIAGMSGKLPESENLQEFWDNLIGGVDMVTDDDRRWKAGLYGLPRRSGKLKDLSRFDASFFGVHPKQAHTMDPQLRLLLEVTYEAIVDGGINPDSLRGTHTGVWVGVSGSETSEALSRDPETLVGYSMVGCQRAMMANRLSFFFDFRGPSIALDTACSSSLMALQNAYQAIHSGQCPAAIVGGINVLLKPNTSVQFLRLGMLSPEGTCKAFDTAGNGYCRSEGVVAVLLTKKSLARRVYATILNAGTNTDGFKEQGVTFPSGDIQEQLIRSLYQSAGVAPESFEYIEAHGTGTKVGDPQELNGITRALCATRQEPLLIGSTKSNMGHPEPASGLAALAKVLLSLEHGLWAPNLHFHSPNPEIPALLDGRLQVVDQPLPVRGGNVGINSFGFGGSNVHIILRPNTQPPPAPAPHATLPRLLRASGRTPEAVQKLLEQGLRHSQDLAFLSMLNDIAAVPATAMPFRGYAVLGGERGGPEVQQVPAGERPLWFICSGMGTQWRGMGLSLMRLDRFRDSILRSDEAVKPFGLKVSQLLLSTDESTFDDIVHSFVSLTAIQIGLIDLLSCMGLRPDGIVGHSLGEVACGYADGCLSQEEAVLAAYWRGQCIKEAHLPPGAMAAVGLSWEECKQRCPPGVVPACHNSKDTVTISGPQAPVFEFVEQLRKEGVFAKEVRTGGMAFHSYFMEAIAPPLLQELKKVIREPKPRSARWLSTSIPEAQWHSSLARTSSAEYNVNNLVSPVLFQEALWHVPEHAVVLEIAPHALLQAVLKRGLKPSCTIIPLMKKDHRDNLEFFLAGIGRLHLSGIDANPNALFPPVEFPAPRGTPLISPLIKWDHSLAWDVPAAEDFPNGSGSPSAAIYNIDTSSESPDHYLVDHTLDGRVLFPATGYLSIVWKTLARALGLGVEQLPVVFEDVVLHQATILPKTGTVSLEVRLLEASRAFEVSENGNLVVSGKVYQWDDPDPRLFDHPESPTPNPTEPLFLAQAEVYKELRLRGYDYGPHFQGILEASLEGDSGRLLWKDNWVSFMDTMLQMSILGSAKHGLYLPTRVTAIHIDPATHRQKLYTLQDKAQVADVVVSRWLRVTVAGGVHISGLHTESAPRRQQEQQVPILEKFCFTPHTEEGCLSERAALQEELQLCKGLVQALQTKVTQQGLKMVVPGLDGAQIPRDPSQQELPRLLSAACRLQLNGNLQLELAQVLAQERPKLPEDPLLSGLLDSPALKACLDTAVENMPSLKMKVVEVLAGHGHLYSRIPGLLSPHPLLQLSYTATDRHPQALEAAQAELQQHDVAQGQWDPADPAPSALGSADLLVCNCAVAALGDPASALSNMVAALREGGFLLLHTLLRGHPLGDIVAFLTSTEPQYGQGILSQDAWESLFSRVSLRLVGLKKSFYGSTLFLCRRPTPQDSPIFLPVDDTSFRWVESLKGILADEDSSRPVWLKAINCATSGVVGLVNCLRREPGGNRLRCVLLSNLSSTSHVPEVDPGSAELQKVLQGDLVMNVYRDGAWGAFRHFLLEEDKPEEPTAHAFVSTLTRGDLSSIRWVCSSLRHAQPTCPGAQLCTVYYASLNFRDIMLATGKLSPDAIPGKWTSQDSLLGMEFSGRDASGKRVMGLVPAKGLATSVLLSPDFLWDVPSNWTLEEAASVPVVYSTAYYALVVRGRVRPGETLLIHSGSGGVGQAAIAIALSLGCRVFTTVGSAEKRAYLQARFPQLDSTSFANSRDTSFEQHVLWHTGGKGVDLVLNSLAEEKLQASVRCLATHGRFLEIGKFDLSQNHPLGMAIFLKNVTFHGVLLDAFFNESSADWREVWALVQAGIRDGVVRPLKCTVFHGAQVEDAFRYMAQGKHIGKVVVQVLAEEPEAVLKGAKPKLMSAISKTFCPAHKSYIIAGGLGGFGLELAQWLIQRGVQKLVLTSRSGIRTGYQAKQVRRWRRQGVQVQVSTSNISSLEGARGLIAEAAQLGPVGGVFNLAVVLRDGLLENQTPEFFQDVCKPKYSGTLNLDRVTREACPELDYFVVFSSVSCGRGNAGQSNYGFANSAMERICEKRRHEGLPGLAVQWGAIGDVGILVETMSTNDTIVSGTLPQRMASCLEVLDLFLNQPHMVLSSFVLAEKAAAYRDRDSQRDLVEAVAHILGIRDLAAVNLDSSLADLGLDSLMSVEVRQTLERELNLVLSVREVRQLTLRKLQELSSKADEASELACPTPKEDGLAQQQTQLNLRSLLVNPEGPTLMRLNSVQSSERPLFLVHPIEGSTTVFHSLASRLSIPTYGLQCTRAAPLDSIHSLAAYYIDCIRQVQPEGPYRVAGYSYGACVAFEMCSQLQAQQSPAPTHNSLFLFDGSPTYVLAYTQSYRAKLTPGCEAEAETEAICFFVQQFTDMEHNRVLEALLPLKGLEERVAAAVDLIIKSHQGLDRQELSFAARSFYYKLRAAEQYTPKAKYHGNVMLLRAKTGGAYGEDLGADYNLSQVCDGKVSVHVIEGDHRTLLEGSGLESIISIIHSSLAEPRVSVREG
Summary of the method: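 Purified full-length hFASN (300 ng) converts ^3H-acetyl-CoA plus malonyl-CoA to ^3H-palmitate in 100 mM KH2PO4 pH 7.5, 1 mM DTT; compounds tested at 0.01–30 μM. Product captured on streptavidin imaging beads and read by LEADseeker at 610 nm after ≥24 h; 4-parameter logistic fit versus controls.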

[6] = system: LNCaP-Vancouver prostate cells; experiment: In vitro LNCaP Vancouver prostate cell proliferation assay in lipid reduced medium; format: cell-based; details: read-out: pIC50 LNCaP_Vancouver prostate cell (converted)

Fatty Acid Synthase Keto-reductase Domain (FASN KR), sequence (P49327 whole entry, the tested form may be a part): as the sequence (P49327 whole entry) above

| Compound | IC50 [1] | IC50 [2] | IC50 (A2780 ovarian cells [3]) | IC50 (A2780 ovarian cells [4]) | inhibition at 10 µM [5] | IC50 [5] | IC50 [6] |
| --- | --- | --- | --- | --- | --- | --- | --- |
| O=C(N1CCCC1)N1CC[C@@H](CN2C(=O)C3(CCOC3)N=C2c2ccc(-c3ccc4cccnc4c3)cc2)C1 (stereo partly drawn) [compound 685, 3-{[(3S)-1-(Pyrrolidin-1-ylcarbonyl)pyrrolidin-3-yl]methyl}-2-(4-quinolin-7-ylphenyl)-7-oxa-1,3-diazaspiro[4.4]non-1-en-4-one] | 1620 nM | 1170 nM | > 10000 nM | 1230 nM | 84% | 851 nM | 3020 nM |
| Cn1cc(-c2ccc(-c3ccc(C4=NC5(CC5)C(=O)N4CC4CN(C(=O)C5CC5)C4)c(F)c3)cc2)cn1 [compound 322, 6-((1-(cyclopropanecarbonyl)azetidin-3-yl)methyl)-5-(3-fluoro-4′-(1-methyl-1H-pyrazol-4-yl)-[1,1′-biphenyl]-4-yl)-4,6-diazaspiro[2.4]hept-4-en-7-one] | 79.4 nM | ~34.7 nM | > 10000 nM | 14.8 nM | 102% | 38 nM | 151 nM |
| Cc1cc(-c2ccc(-c3ccn(CC4CC4)n3)cc2)ccc1C1=NC2(CC2)C(=O)N1CC1CN(C(=O)C2(C)CC2)C1 [compound 601, 5-{4′-[1-(Cyclopropylmethyl)-1H-pyrazol-3-yl]-3-methylbiphenyl-4-yl}-6-({1-[(1-methylcyclopropyl)carbonyl]azetidin-3-yl}methyl)-4,6-diazaspiro[2.4]hept-4-en-7-one] | 501 nM | 316 nM | 3890 nM | 219 nM | 100% | 186 nM | 1020 nM |
| COc1cc2cc(-c3ccc(C4=NC5(CC5)C(=O)N4C[C@@H]4CCN(C(=O)C5CC5)C4)cc3)ccc2cn1 [compound 470, 6-{[(3R)-1-(Cyclopropylcarbonyl)pyrrolidin-3-yl]methyl}-5-[4-(3-methoxyisoquinolin-6-yl)phenyl]-4,6-diazaspiro[2.4]hept-4-en-7-one] | 115 nM | ~631 nM | > 10000 nM | ~933 nM | 98% | 182 nM | 1480 nM |
| Cc1ccc2cc(-c3ccc(C4=NC5(CC5)C(=O)N4CC4CN(C(=O)C5(C)CC5)C4)c(C)c3)ccc2c1 [compound 334, 5-(2-methyl-4-(6-methylnaphthalen-2-yl)phenyl)-6-((1-(1-methylcyclopropanecarbonyl)azetidin-3-yl)methyl)-4,6-diazaspiro[2.4]hept-4-en-7-one] | 43.7 nM | 37.2 nM | 6920 nM | 24 nM | 97% | 21.9 nM | 162 nM |
| O=C(C1CC1)N1CC[C@@H](CN2C(=O)C3(CC3)N=C2c2ccc(-c3ccc4cncnc4c3)cc2F)C1 [compound 258, (R)-6-((1-(cyclopropanecarbonyl)pyrrolidin-3-yl)methyl)-5-(2-fluoro-4-(quinazolin-7-yl)phenyl)-4,6-diazaspiro[2.4]hept-4-en-7-one] | 83.2 nM | 14.5 nM | > 10000 nM | ~11.2 nM | 94% | 72.4 nM | 31.6 nM |
| Cc1cc(-c2ccc3cc(F)ccc3c2)ccc1C1=NC2(CC2)C(=O)N1C[C@@H]1CCN(C(=O)C2(C)CC2)C1 [compound 266, (R)-5-(4-(6-fluoronaaphthalen-2-yl)-2-methylphenyl)-6-((1-(1-methylcyclopropanecarbonyl)pyrrolidin-3-yl)methyl)-4,6-diazaspiro[2.4]hept-4-en-7-one] | 46.8 nM | 4.68 nM | 1350 nM | ~2.19 nM | 102% | 33.9 nM | 15.1 nM |
| O=C(C1CC1)N1CC[C@@H](CN2C(=O)C3(CC3)N=C2c2ccc(-c3ccc4cc[nH]c4c3)c(F)c2)C1 [compound 236, (R)-6-((1-(cyclopropanecarbonyl)pyrrolidin-3-yl)methyl)-5-(3-fluoro-4-(1H-indol-6-yl)phenyl)-4,6-diazaspiro[2.4]hept-4-en-7-one] | 95.5 nM | 51.3 nM | > 10000 nM | ~89.1 nM | 98% | 34.7 nM | 646 nM |
| Cc1ccc2ccc(-c3ccc(C4=NC5(CC5)C(=O)N4CC4CN(C(=O)C5(C)CC5)C4)c(C)c3)cc2n1 [compound 576, 6-({1-[(1-Methylcyclopropyl)carbonyl]azetidin-3-yl}methyl)-5-[2-methyl-4-(2-methylquinolin-7-yl)phenyl]-4,6-diazaspiro[2.4]hept-4-en-7-one] | 676 nM | 676 nM | > 10000 nM | 288 nM | 99% | 380 nM | 2140 nM |
| O=C(C1CC1)N1CC(CN2C(=O)C3(CC3)N=C2c2ccc(-c3ccc(-c4cnn(C5CC5)c4)cc3)cc2F)C1 [compound 328, 6-((1-(cyclopropanecarbonyl)azetidin-3-yl)methyl)-5-(4′-(1-cyclopropyl-1H-pyrazol-4-yl)-3-fluoro-[1,1′-biphenyl]-4-yl)-4,6-diazaspiro[2.4]hept-4-en-7-one] | 79.4 nM | 16.2 nM | 10000 nM | 5.13 nM | 98% | 31.6 nM | 53.7 nM |

More lines, in order of falling IC50 [1], values ahead:

| IC50 [1] | IC50 [2] | IC50 (A2780 ovarian cells [3]) | IC50 (A2780 ovarian cells [4]) | inhibition at 10 µM [5] | IC50 [5] | IC50 [6] | Compound |
| --- | --- | --- | --- | --- | --- | --- | --- |
| 158 nM | 34.7 nM | 8130 nM | 10.5 nM | 104% | 32.4 nM | 138 nM | CC(C)n1cc(-c2ccc(-c3ccc(C4=NC5(CC5)C(=O)N4CC4CN(C(=O)C5CC5)C4)c(F)c3)cc2)cn1 [compound 327, 6-((1-(cyclopropanecarbonyl)azetidin-3-yl)methyl)-5-(3-fluoro-4′-(1-isopropyl-1H-pyrazol-4-yl)-[1,1′-biphenyl]-4-yl)-4,6-diazaspiro[2.4]hept-4-en-7-one] |
| 155 nM | ~83.2 nM | > 10000 nM | ~83.2 nM | 96% | 102 nM | 724 nM | O=C(C1CC1)N1CC[C@@H](CN2C(=O)C3(CC3)N=C2c2ccc(-c3n[nH]c4ccccc34)cc2F)C1 [compound 529, 6-{[(3R)-1-(Cyclopropylcarbonyl)pyrrolidin-3-yl]methyl}-5-[2-fluoro-4-(1H-indazol-3-yl)phenyl]-4,6-diazaspiro[2.4]hept-4-en-7-one] |
| 151 nM | 55 nM | > 10000 nM | 13.2 nM | 99% | 42.7 nM | 355 nM | Cn1cc2ccc(-c3ccc(C4=NC5(CC5)C(=O)N4CC4CN(C(=O)C5CC5)C4)c(F)c3)cc2n1 [compound 227, 6-((1-(cyclopropanecarbonyl)azetidin-3-yl)methyl)-5-(2-fluoro-4-(2-methyl-2H-indazol-6-yl)phenyl)-4,6-diazaspiro[2.4]hept-4-en-7-one] |
| 74.1 nM | ~95.5 nM | > 10000 nM | 58.9 nM | 101% | 83.2 nM | 550 nM | O=C(N1CC[C@@H](CN2C(=O)C3(CC3)N=C2c2ccc(-c3ccc(Cl)cc3F)cc2)C1)C1(O)CC1 [compound 202, (R)-5-(4′-chloro-2′-fluoro[1,1′-biphenyl]-4-yl)-6-((1-(1-hydroxycyclopropanecarbonyl)pyrrolidin-3-yl)methyl)-4,6-diazaspiro[2.4]hept-4-en-7-one] |
| 56.2 nM | ~1410 nM | > 10000 nM | ~2240 nM | 101% | 56.2 nM | 1820 nM | Cc1oc2ccc(-c3ccc(C4=NC5(CC5)C(=O)N4C[C@@H]4CCN(C(=O)C5CC5)C4)c(F)c3)cc2c1C [compound 244, (R)-6-((1-(cyclopropanecarbonyl)pyrrolidin-3-yl)methyl)-5-(4-(2,3-dimethylbenzofuran-5-yl)-2-fluorophenyl)-4,6-diazaspiro[2.4]hept-4-en-7-one] |
| 45.7 nM | 3.24 nM | > 10000 nM | ~3.63 nM | 103% | 39.8 nM | ~12.9 nM | Cn1ncc2cc(-c3ccc(C4=NC5(CC5)C(=O)N4C[C@@H]4CCN(C(=O)C5(C)CC5)C4)c(F)c3)ccc21 [compound 361, (R)-5-(2-fluoro-4-(1-methyl-1H-indazol-5-yl)phenyl)-6-((1-(1-methylcyclopropanecarbonyl)pyrrolidin-3-yl)methyl)-4,6-diazaspiro[2.4]hept-4-en-7-one] |
| ~36.3 nM | 28.2 nM | > 10000 nM | 22.9 nM | 100% | 35.5 nM | 81.3 nM | Cn1cnc2cc(-c3ccc(C4=NC5(CC5)C(=O)N4CC4CN(C(=O)C5(O)CC5)C4)c(F)c3)ccc21 [compound 377, 5-(2-fluoro-4-(1-methyl-1H-benzo[d]imidazol-5-yl)phenyl)-6-((1-(1-hydroxycyclopropanecarbonyl)azetidin-3-yl)methyl)-4,6-diazaspiro[2.4]hept-4-en-7-one] |
